Test results from publication PMC10522591, “Natural product P57 induces hypothermia through targeting pyridoxal kinase” (Nature Communications, 2023).
Positions count from the first letter of the chain named.

Columns and labels:
[1] = target: T1, pyridoxal kinase (PDXK) (Homo sapiens, UniProt O00764); assay: initial velocity kinetics, ATP varied at fixed PL; type: biochemical
T1 construct: wild-type full-length human PDXK, N-terminal His tag
T1 sequence (O00764 1-312): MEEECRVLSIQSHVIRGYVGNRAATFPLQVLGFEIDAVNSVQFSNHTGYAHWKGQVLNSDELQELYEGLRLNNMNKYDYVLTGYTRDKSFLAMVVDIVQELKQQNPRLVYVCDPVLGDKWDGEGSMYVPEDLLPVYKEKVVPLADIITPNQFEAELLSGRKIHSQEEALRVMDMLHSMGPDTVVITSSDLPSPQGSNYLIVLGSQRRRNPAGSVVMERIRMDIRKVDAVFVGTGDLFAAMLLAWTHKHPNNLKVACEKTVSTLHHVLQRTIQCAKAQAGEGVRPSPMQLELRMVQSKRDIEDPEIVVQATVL

[2] = target: T2, pyridoxal kinase (PDXK) (Homo sapiens, UniProt O00764, D235A); assay: inhibition of purified mutant enzyme (Fig. S5g); type: biochemical
T2 construct: full-length human PDXK D235A, N-terminal His tag
T2 sequence (O00764 1-312 D235A): T1 sequence (O00764 1-312) with D235A

[3] = target: T1, pyridoxal kinase (PDXK); assay: SPR (Biacore T200); also MST Kd =[…], and enzyme inhibition with EC50 […]; type: binding
[4] = target: T3, pyridoxal kinase (PDXK) (Mus musculus, UniProt Q8K183); assay: competition of P57-Bio ([…]) affinity pull-down by P57 ([…]), Western blot; type: cell-based
T3 construct: endogenous, mouse brain lysate
T3 sequence (Q8K183 1-312): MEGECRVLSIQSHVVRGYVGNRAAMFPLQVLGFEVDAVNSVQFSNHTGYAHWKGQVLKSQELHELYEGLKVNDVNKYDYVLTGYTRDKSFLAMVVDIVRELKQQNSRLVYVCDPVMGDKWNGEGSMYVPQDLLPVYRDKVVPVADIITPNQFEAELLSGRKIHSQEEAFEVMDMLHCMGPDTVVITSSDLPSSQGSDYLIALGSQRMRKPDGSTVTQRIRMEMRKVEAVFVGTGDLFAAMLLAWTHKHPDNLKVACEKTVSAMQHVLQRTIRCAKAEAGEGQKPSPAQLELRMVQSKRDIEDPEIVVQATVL

SMILES	initial velocity kinetics, ATP varied at fixed PL [1]	inhibition of purified mutant enzyme (Fig. S5g) [2]	Kd [3] [µM]	competition of P57-Bio (2.0 μM) affinity pull-down by P57 (20.0 μM), Western blo [4]
Nc1ncnc2c1ncn2[C@@H]1O[C@H](COP(=O)(O)OP(=O)(O)OP(=O)(O)O)[C@@H](O)[C@H]1O [ATP]	PL concentration was fixed and the concentrations of ATP were varied showed that both Km and Vmax values decreased			
C/C=C(\C)C(=O)O[C@@H]1C[C@H]2[C@@H](CC=C3C[C@@H](O[C@H]4C[C@H](OC)[C@H](O[C@H]5C[C@H](OC)[C@H](O[C@@H]6O[C@H](C)[C@@H](O)[C@H](OC)[C@H]6O)[C@@H](C)O5)[C@@H](C)O4)CC[C@@]32C)[C@@]2(O)CC[C@H](C(C)=O)[C@@]12C [P57]		the D235A mutation can reduce the binding stability to a certain extent, and partly reducing the inhibitory activity	3.5	immunoblotting showed GSTP1 and PDXK, but not neuromodulin, were sensitive to competition by excess P57
